pIC50: −log10 of the molar value. Where two headings read alike, the source gives them in different places.
Key:
[1] = tested on: LoVo cells; assay: MTT based cell viability assay on LoVo cells; details: for pIC50: Homo sapiens, 72 h, read-out: IC50, growth inhibition on LoVo cells
Experimental: Determination of the Cell Growth Inhibiting Activity of 6-(2,6-dichlorophenyl)-2-((4-(4-methylpiperazin-1-yl)phenyl)amino)imidazo[1,2-b]pyrimido[4,5-d]pyridazin-5(6H)-one and Analogs Thereof on LoVo Cells Using a MTT Based Cell Viability Assay
The thawed LoVo cells were cultured and passaged to the third generation, and the growth state was good and the confluence was about 90%, which began to be used in the experiment. The LoVo cells were digested with trypsin, centrifuged at 800 rpm for 5 min, the supernatant was discarded, resuspended with fresh culture medium, and counted. 6000 Cells are seeded to each well of a 96-well cell culture plate. The cells were incubated at 37° C. in a 5% CO2 cell culture incubator overnight. The tested sample (including the tested compound and the reference compound AZD1775) was diluted continuously to 8 concentrations (the last concentration was negative control of DMSO) with a 1:3 and 1:10 dilution in DMSO respectively: 10 μM, 3.3 μM, 1 μM, 0.33 μM, 0.1 μM, 0.033 μM, 0.01 μM, 0 μM (the final concentration of DMSO was 1%). 5 μL of each concentration was added to 120 μL of culture medium (25 times diluted), and the mixture was shaken well. The overnight cells were taken and the culture medium was removed, 195 μL of fresh culture medium was added to each well, and 5 μL of diluted culture medium containing the corresponding concentration of the tested sample was added respectively, and the culture plate was then placed in the 5% CO2 cell culture incubator at 37° C. for 3 d. After removing the original solution and adding 100 μL of fresh serum-free DMEM culture medium containing MTT (0.5 mg/mL) per well, the culture was continued. The original solution was removed after 4 hrs and 100 μl DMSO was added to each well. The 96-well cell culture plates were shaken away from light for 10 min and readed in a multifunctional reader at 552/630/690 nm to give absorption values (OD values). The data were analyzed using a graphic software (Graph Pad Prism 5.0) and the inhibitory activity of the compound on cell proliferation was plotted in terms of cell survival and compound concentration. The IC50 values were fitted by the S-shaped dose-response curve equation as follows: Y=100/(1+10^(Log C−Log IC50)), where C was the concentration of testing compounds.

[2] = target: Wee1 kinase (h) (Homo sapiens, UniProt P30291); assay: Wee1 kinase (h) detection method, [γ-33P]-ATP filter assay; assay type: biochemical; details: for Inh. (%) of Wee1 kinase: 10 μM ATP, 40 minutes at room temperature
Experimental: Wee1 kinase (h) was incubated with 20 mM Tris/HCl pH 8.5, 0.2 mM EDTA, 500 μM […], 10 mM MgAcetate and 10 μM [γ-^33P]-ATP. Then the stock solution of all compounds under test with 50× concentration in 100% DMSO was added to make the final concentration of 1/0.1/0.01 μM, and then mixed the mixture well. The reaction was initiated by the addition of the Mg/ATP mix. After incubation for 40 minutes at room temperature, the reaction was stopped by the addition of phosphoric acid to a concentration of 0.5%. 10 μL of the reaction liquor was then spotted onto a P30 filtermat and washed four times in 0.425% phosphoric acid and once in methanol prior to drying and scintillation counting. Each compound sample was duplicated in duplicate. The negative control was lack of all the components of Wee1 enzyme, and the positive was addition of 30% phosphoric acid to terminate the reaction. The Wee1 inhibitor AZD1775 was detected at 10/0.01 μM at the same experiment condition.

[3] = tested on: NCI-H1299 cells; assay: MTT based cell viability assay on NCI-H1299 cells; details: for pIC50: Homo sapiens, read-out: IC50, growth inhibition on NCI-H1299 cells
Experimental: Determination of the Cell Growth Inhibiting Activity of 6-(2,6-dichlorophenyl)-2-((4-(4-methylpiperazin-1-yl)phenyl)amino)imidazo[1,2-b]pyrimido[4,5-d]pyridazin-5(6H)-one and Analogs on NCI-H1299 Cells Using a MTT Based Cell Viability Assay
The thawed NCI-H1299 cells were cultured and passaged to the third generation, and the growth state was good and the confluence was about 90%, which began to be used in the experiment. The NCI-H1299 cells were digested with trypsin, centrifuged at 800 rpm for 5 min, the supernatant was discarded, resuspended with fresh culture medium, and counted. 1000 Cells are seeded to each well of a 96-well plate. The cells are incubated at 37° C. in a 5% CO2 cell culture incubator overnight. The tested sample (including the tested compound and the reference compound AZD1775) was diluted continuously to 8 concentrations (the last concentration was negative control of DMSO) with a 1:3 and 1:10 dilution in DMSO respectively: 10 μM, 3.3 μM, 1 μM, 0.33 μM, 0.1 μM, 0.033 μM, 0.01 μM, 0 μM (the final concentration of DMSO was 1%). 5 μL of each concentration was added to 120 μL of culture medium (25 times diluted), and the mixture was shaken well. The overnight cells were taken and the culture medium was removed, 195 μL of fresh culture medium was added to each well, and 5 μL of diluted culture medium containing the corresponding concentration of the tested sample was added respectively, and the culture plate was then placed in the 5% CO2 cell culture incubator at 37° C. for 3 d. After removing the original solution and adding 100 μL of fresh serum-free DMEM culture medium containing MTT (0.5 mg/mL) per well, the culture was continued. The original solution was removed after 4 hrs and 100 μl DMSO was added to each well. The 96-well cell culture plates were shaken away from light for 10 min and readed in a multifunctional reader at 552/630/690 nm to give absorption values (OD values). The data were analyzed using a graphic software (Graph Pad Prism 5.0) and the inhibitory activity of the compound on cell proliferation was plotted in terms of cell survival and compound concentration. The IC50 values were fitted by the S-shaped dose-response curve equation as follows: Y=100/(1+10^(Log C−Log IC50)), where C was the concentration of testing compounds.

[4] = 72 h, NCI-H1299 cells, 3 d, MTT

Sequence of Wee1 kinase (h) (P30291 whole entry): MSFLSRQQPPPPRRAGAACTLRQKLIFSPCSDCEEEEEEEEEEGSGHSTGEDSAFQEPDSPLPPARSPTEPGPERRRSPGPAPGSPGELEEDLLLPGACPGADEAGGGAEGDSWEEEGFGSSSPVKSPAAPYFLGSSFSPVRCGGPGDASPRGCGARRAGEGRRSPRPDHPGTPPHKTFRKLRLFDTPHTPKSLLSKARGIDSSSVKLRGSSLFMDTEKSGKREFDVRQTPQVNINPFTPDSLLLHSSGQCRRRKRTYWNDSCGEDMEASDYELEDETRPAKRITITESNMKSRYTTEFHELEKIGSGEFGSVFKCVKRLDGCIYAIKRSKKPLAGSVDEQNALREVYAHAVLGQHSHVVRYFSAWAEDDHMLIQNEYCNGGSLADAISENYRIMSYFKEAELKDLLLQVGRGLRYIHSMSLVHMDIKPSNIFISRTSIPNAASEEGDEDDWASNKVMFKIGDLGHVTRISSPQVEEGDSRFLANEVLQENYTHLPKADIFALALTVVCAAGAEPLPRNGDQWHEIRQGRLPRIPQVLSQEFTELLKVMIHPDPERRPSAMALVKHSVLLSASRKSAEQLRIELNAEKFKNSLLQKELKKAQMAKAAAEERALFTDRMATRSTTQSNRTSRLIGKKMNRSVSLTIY

Inh. (%) of Wee1 kinase ([2]; C 1 μm)	pIC50 ([1]; LoVo cells, 3 d, MTT)	pIC50 [3, 4]	SMILES	pIC50 ([1]; LoVo)	inhibitory effect on the growth of LoVo cells (summary in words) ([1]; MTT method)	inhibitory effect on the activity of Wee1 kinase (summary in words) [2]	Inh. (%) of Wee1 kinase ([2]; C 0.01 μm)	Inh. (%) of Wee1 kinase ([2]; C 0.1 μm)	pIC50 ([3]; NCI-H1299, 72 h)	inhibitory effect on the growth of NCI-H1299 cell (summary in words) ([3]; MTT method)
91%	6.20	6.38	Cc1cc(Nc2ncc3c(=O)n(-c4c(C)cccc4Cl)n4ccnc4c3n2)cc(F)c1N1CCN(C)CC1 [Example 54, 6-(2-chloro-6-methylphenyl)-2-((3-fluoro-5-methyl-4-(4-methylpiperazin-1-yl)phenyl)amino)imidazo[1,2-b]pyrimido[4,5-d]pyridazin-5(6H)-one]							
89%	6.25	6.18	Cc1cc(Nc2ncc3c(=O)n(-c4c(C)cccc4Cl)n4ccnc4c3n2)cc(Cl)c1N1CCN(C)CC1 [Example 55, 6-(2-chloro-6-methylphenyl)-2-((3-chloro-5-methyl-4-(4-methylpiperazin-1-yl)phenyl)amino)imidazo[1,2-b]pyrimido[4,5-d]pyridazin-5(6H)-one]				0%	46%		
91%	6.71	6.28	Cc1cc(Nc2ncc3c(=O)n(-c4c(F)cccc4Cl)n4ccnc4c3n2)cc(Cl)c1N1CCN(C)CC1 [Example 23, 6-(2-chloro-6-fluorophenyl)-2-((3-chloro-5-methyl-4-(4-methylpiperazin-1-yl)phenyl)amino)imidazo[1,2-b]pyrimido[4,5-d]pyridazin-5(6H)-one]							
96%	6.84	6.60	Cc1cc(Nc2ncc3c(=O)n(-c4c(F)cccc4Cl)n4ccnc4c3n2)cc(F)c1N1CCC(N(C)C)CC1 [Example 25, 6-(2-chloro-6-fluorophenyl)-2-((3-fluoro-5-methyl-4-(4-(dimethylamino)piperidin-1-yl)phenyl)amino)imidazo[1,2-b]pyrimido[4,5-d]pyridazin-5(6H)-one]				10%			

Continued, compound first:

SMILES	Inh. (%) of Wee1 kinase ([2]; C 1 μm)	pIC50 ([1]; LoVo cells, 3 d, MTT)	pIC50 [3, 4]	pIC50 ([1]; LoVo)	inhibitory effect on the growth of LoVo cells (summary in words) ([1]; MTT method)	inhibitory effect on the activity of Wee1 kinase (summary in words) [2]	Inh. (%) of Wee1 kinase ([2]; C 0.01 μm)	Inh. (%) of Wee1 kinase ([2]; C 0.1 μm)	pIC50 ([3]; NCI-H1299, 72 h)	inhibitory effect on the growth of NCI-H1299 cell (summary in words) ([3]; MTT method)
CN1CCN(c2ccc(Nc3ncc4c(=O)n(-c5c(Cl)cccc5Cl)n5ccnc5c4n3)cc2)CC1 [Example 1, 6-(2,6-dichlorophenyl)-2-((4-(4-methylpiperazin-1-yl)phenyl)amino)imidazo[1,2-b]pyrimido[4,5-d]pyridazin-5(6H)-one]	94%			6.28	inhibitory effect	good inhibitory effect	11%	75%	6.04	inhibitory effect
Cc1cc(Nc2ncc3c(=O)n(-c4c(Cl)cccc4Cl)n4ccnc4c3n2)ccc1N1CCNCC1 [Example 26, 6-(2,6-dichlorophenyl)-2-((3-methyl-4-(piperazin-1-yl)phenyl)amino)imidazo[1,2-b]pyrimido[4,5-d]pyridazin-5(6H)-one]				6.70			27%		6.57	
Cc1cc(Nc2ncc3c(=O)n(-c4c(F)cccc4F)n4ccnc4c3n2)cc(C)c1N1CCN(C)CC1 [Example 13, 6-(2,6-difluorophenyl)-2-((3,5-dimethyl-4-(4-methylpiperazin-1-yl)phenyl)amino)imidazo[1,2-b]pyrimido[4,5-d]pyridazin-5(6H)-one]	85%	6.31	6.13							
Cc1cc(Nc2ncc3c(=O)n(-c4c(Cl)cccc4Cl)n4ccnc4c3n2)ccc1N1CCC(N(C)C)CC1 [Example 36, 6-(2,6-dichlorophenyl)-2-((3-methyl-4-(4-(dimethylamino)piperidin-1-yl)phenyl)amino)imidazo[1,2-b]pyrimido[4,5-d]pyridazin-5(6H)-one]	98%			6.69			22%		6.87	
Cc1cc(Nc2ncc3c(=O)n(-c4c(Cl)cccc4Cl)n4ccnc4c3n2)cc(F)c1N1CCC(N(C)C)CC1 [Example 37, 6-(2,6-dichlorophenyl)-2-((3-fluoro-5-methyl-4-(4-(dimethylamino)piperidin-1-yl)phenyl)amino)imidazo[1,2-b]pyrimido[4,5-d]pyridazin-5(6H)-one]	96%			6.54			13%		6.73	

From patent publication US11345710B2, “Imidazo[1,2-b]pyrimido[4,5-d]pyridazin-5(6H)-ones and the use thereof” (IMPACT THERAPEUTICS (SHANGHAI), INC, priority 2017, dated 2022)
